In the supplement of paper PMC11208160:

Assay: recombinant UMI read abundance after kanamycin selection (control-corrected) (log10(CPM+1)); higher = more efficient recombination; extreme values may be limits of the assay; sequences stand for … in AGTGCAGAGAAAATCGGCCAGTTTTCTCTGCCTGCAGTCCGCATGCCGTGGGACCCCTTGGGTTCTAACCTGTTGCCTAGATTTATGCAGCGGACTGCCTTTCTCCCAAAGTGATAAACCGG…AGGTTGGTTTCACT; site = the 11-nt donor
Method in brief: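 Values are reported as log10(CPM+1), obtained by converting sequencing counts to CPM, averaging replicates and scaling by control-derived factors. The counts came from recombinant UMIs amplified by PCR across the donor–target junction. These UMIs came from a pooled Escherichia coli screen of donor and donor-binding-loop pairs for the IS621 bridge recombinase, plated with IPTG (0.07 mM) plus kanamycin or left unselected, in two replicates each.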
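Note: IS621 bridge recombinase in Escherichia coli cells against a fixed T5 target plasmid.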

“AGCCCAGCATGGACCGGTTTTCCCGGTAATCCGTATTTGGG (site AGCTCAGCTCC)” and “AGCCTAACATGGACCGGTTTTCCCGGTAATCCGTATTTGCT (site AGCCTAACTAG)” are within 0.2 log units of each other in “recombinant UMI read abundance (log10)” value: 0.0182 for the first, 0 for the second.

“AGCCTACCATGGACCGGTTTTCCCGGTAATCCGTATTTGTT (site AGCCTAACTAA)” and “AGCCTACCATGGACCGGTTTTCCCGGTAATCCGTATTTGTT (site AGCCTACCTAA)” are within 0.2 log units of each other in “recombinant UMI read abundance (log10)” value: 0 for the first, 0.0133 for the second.

“AGCCTACCATGGACCGGTTTTCCCGGTAATCCGTATTTGTT (site AGCCTAGCTAA)” and “AGCCTACCATGGACCGGTTTTCCCGGTAATCCGTATTTGTT (site AGCCTATCTAA)” are within 0.2 log units of each other in “recombinant UMI read abundance (log10)” value: 0.00248 for the first, 0.00614 for the second.

“AGCCTAGCATGGACCGGTTTTCCCGGTAATCCGTATTTGAT (site AGCCTAGCTAA)” and “AGCCTAGCATGGACCGGTTTTCCCGGTAATCCGTATTTGAT (site AGCCTAGCTAC)” are within 0.2 log units of each other in “recombinant UMI read abundance (log10)” value: 0.0122 for the first, 0.0164 for the second.

“AGCCTAGCATGGACCGGTTTTCCCGGTAATCCGTATTTGAT (site AGCCTAGCTAG)” and “AGCCTAGCATGGACCGGTTTTCCCGGTAATCCGTATTTGAT (site AGCCTAGCTAT)” are within 0.2 log units of each other in “recombinant UMI read abundance (log10)” value: 0 for the first, 0.0107 for the second.

“AGCCTAGCATGGACCGGTTTTCCCGGTAATCCGTATTTGTA (site AGCCTAGCTAA)” and “AGCCTAGCATGGACCGGTTTTCCCGGTAATCCGTATTTGTA (site AGCCTAGCTCA)” are within 0.2 log units of each other in “recombinant UMI read abundance (log10)” value: 0.0136 for the first, 0.0462 for the second.

Compared with “AGCCTAGCATGGACCGGTTTTCCCGGTAATCCGTATTTGTA (site AGCCTAGCTGA)”, “AGCCTAGCATGGACCGGTTTTCCCGGTAATCCGTATTTGTA (site AGCCTAGCTTA)” is higher in “recombinant UMI read abundance (log10)” value: 0 for the first, 0.245 for the second.

“AGCCTAGCATGGACCGGTTTTCCCGGTAATCCGTATTTGTC (site AGCCTAGCTAA)” and “AGCCTAGCATGGACCGGTTTTCCCGGTAATCCGTATTTGTC (site AGCCTAGCTCA)” are within 0.2 log units of each other in “recombinant UMI read abundance (log10)” value: 0.199 for the first, 0.0312 for the second.

“AGCCTAGCATGGACCGGTTTTCCCGGTAATCCGTATTTGTC (site AGCCTAGCTGA)” and “AGCCTAGCATGGACCGGTTTTCCCGGTAATCCGTATTTGTC (site AGCCTAGCTTA)” are within 0.2 log units of each other in “recombinant UMI read abundance (log10)” value: 0 for the first, 0.0185 for the second.

Going from “AGCCTATCATGGACCGGTTTTCCCGGTAATCCGTATTTGAC (site AGCCTATCTGT)” to “AGCCTATCATGGACCGGTTTTCCCGGTAATCCGTATTTGAC (site AGCCTCTCTGT)”, the “recombinant UMI read abundance (log10)” value falls from 0.685 to 0.

“AGCCTATCATGGACCGGTTTTCCCGGTAATCCGTATTTGAC (site AGCCTGTCTGT)” and “AGCCTATCATGGACCGGTTTTCCCGGTAATCCGTATTTGAC (site AGCCTTTCTGT)” are the same in “recombinant UMI read abundance (log10)” value: 0 for the first, 0 for the second.

“AGCCTTTCATGGACCGGTTTTCCCGGTAATCCGTATTTGAT (site AGCCTTTCTAT)” and “AGCCTTTCATGGACCGGTTTTCCCGGTAATCCGTATTTGAT (site AGCCTTTCTCT)” are the same in “recombinant UMI read abundance (log10)” value: 0 for the first, 0 for the second.

“AGCCTTTCATGGACCGGTTTTCCCGGTAATCCGTATTTGAT (site AGCCTTTCTGT)” and “AGCCTTTCATGGACCGGTTTTCCCGGTAATCCGTATTTGAT (site AGCCTTTCTTT)” are the same in “recombinant UMI read abundance (log10)” value: 0 for the first, 0 for the second.

Compared with “AGCGCGACATGGACCGGTTTTCCCGGTAATCCGTATTTGTG (site AGCGCGACTCA)”, “AGCGCTCCATGGACCGGTTTTCCCGGTAATCCGTATTTGCC (site AGCGCTCCTGG)” is lower in “recombinant UMI read abundance (log10)” value: 0.829 for the first, 0 for the second.

“AGCGGCTCATGGACCGGTTTTCCCGGTAATCCGTATTTGGG (site AGCGGCTCTCC)” and “AGCTAAGCATGGACCGGTTTTCCCGGTAATCCGTATTTGGG (site AGCTAAGCTCC)” are within 0.2 log units of each other in “recombinant UMI read abundance (log10)” value: 0.204 for the first, 0.00725 for the second.

“AGCTAAGCATGGACCGGTTTTCCCGGTAATCCGTATTTGGG (site AGCTCAGCTCC)” and “AGCTAAGCATGGACCGGTTTTCCCGGTAATCCGTATTTGGG (site AGCTGAGCTCC)” are within 0.2 log units of each other in “recombinant UMI read abundance (log10)” value: 0.0056 for the first, 0.0394 for the second.
